Measurements from US20220033396A1, “FURTHER HETEROAROMATIC COMPOUNDS HAVING ACTIVITY AGAINST RSV” (priority 2018, published 2022).

Key:
rgRSV224 virus = experiment: microbe, parasite or virus in culture; assay type: cell-based; conditions: human respiratory syncytial virus, 72 h; rgRSV224 virus (MOI=1), HeLa cells, GFP expression three days post-virus exposure; averaged data of several repeat experiments; read-out: RSV HELA EC50
in vitro = conditions: human

SMILES	EC50 (rgRSV224 virus) [µM]	CC50 at 3 days (in vitro) [µM]
C[C@@H]1c2ccccc2CCN1C(=O)c1cc(-c2cccnc2)c2nc(-c3ccc(N4CC[C@H](C(N)=O)C4)cc3F)cn2c1 [Compound 17, (3S)-1-(3-Fluoro-4-{6-[(1R)-1-methyl-1,2,3,4-tetrahydroisoquinoline-2-carbonyl]-8-(pyridin-3-yl)imidazo[1,2-a]pyridin-2-yl}phenyl)pyrrolidine-3-carboxamide]	0.163	44.3
C[C@@H]1c2ccccc2CCN1C(=O)c1cc(N(C)C)c2nc(-c3ccc(N4CC[C@H](C(N)=O)C4)cc3F)cn2c1 [Compound 19, (3S)-1-{4-[8-(Dimethylamino)-6-[(1R)-1-methyl-1,2,3,4-tetrahydroisoquinoline-2-carbonyl]imidazo[1,2-a]pyridin-2-yl]-3-fluorophenyl}pyrrolidine-3-carboxylamide]	0.141	43.9
C[C@@H]1c2ccccc2CCN1C(=O)c1cc(N2CCCC2)c2nc(-c3ccc(N4CC[C@H](C(N)=O)C4)cc3F)cn2c1 [Compound 20, (3S)-1-(3-Fluoro-4-{6-[(1R)-1-methyl-1,2,3,4-tetrahydroisoquinoline-2-carbonyl]-8-(pyrrolidin-1-yl)imidazo[1,2-a]pyridin-2-yl}phenyl)pyrrolidine-3-carboxamide]	0.149	> 100
Cc1c(-c2ccc(N3CC[C@H](C(N)=O)C3)cc2F)nc2c(C3CC3)cc(C(=O)N3CCc4ccccc4[C@H]3C)cn12 [Compound 21, (3S)-1-(4-{8-Cyclopropyl-3-methyl-6-[(1R)-1-methyl-1,2,3,4-tetrahydroisoquinoline-2-carbonyl]imidazo[1,2-a]pyridin-2-yl}-3-fluorophenyl)pyrrolidine-3-carboxamide]	0.638	35
C[C@@H]1c2ccccc2CCN1C(=O)c1cc(C2CC2)c2nc(-c3ccc(N4CC[C@H](C(N)=O)C4)nc3F)cn2c1 [Compound 22, (3S)-1-(5-{8-Cyclopropyl-6-[(1R)-1-methyl-1,2,3,4-tetrahydroisoquinoline-2-carbonyl]imidazo[1,2-a]pyridin-2-yl}-6-fluoropyridin-2-yl)pyrrolidine-3-carboxamide]	0.171	37.4
C[C@@H]1c2ccccc2CCN1C(=O)c1cc(C2CC2)c2nc(-c3ccc(-n4cc(C(=O)O)cn4)cc3F)cn2c1 [Compound 25, 1-(4-{8-Cyclopropyl-6-[(1R)-1-methyl-1,2,3,4-tetrahydroisoquinoline-2-carbonyl]imidazo[1,2-a]pyridin-2-yl}-3-fluorophenyl)-1H-pyrazole-4-carboxylic Acid]	0.369	51.3
C[C@@H]1c2ccccc2CCN1C(=O)c1cc(C2CC2)c2nc(-c3ccc(-n4cc(C(N)=O)cn4)cc3F)cn2c1 [Compound 26, 1-(4-{8-Cyclopropyl-6-[(1R)-1-methyl-1,2,3,4-tetrahydroisoquinoline-2-carbonyl]imidazo[1,2-a]pyridin-2-yl}-3-fluorophenyl)-1H-pyrazole-4-carboxamide]	0.202	42.7
C[C@@H]1c2ccccc2CCN1C(=O)c1cc(C2CC2)c2nc(-c3ccc(N4CC(O)C4)cc3F)cn2c1 [Compound 27, 1-(4-{8-Cyclopropyl-6-[(1R)-1-methyl-1,2,3,4-tetrahydroisoquinoline-2-carbonyl]imidazo[1,2-a]pyridin-2-yl}-3-fluorophenyl)azetidin-3-ol]	0.119	98.1
C[C@@H]1c2ccccc2CCN1C(=O)c1cc(C2CC2)c2nc(-c3ccc(N4CC(C(=O)NS(C)(=O)=O)C4)cc3F)cn2c1 [Compound 28, 1-(4-{8-Cyclopropyl-6-[(1R)-1-methyl-1,2,3,4-tetrahydroisoquinoline-2-carbonyl]imidazo[1,2-a]pyridin-2-yl}-3-fluorophenyl)-N-methanesulfonylazetidine-3-carboxamide]	3.11	> 100
C[C@@H]1c2ccccc2CCN1C(=O)c1cc(C2CC2)c2nc(-c3ccc4c(c3F)C=C(C(=O)O)CO4)cn2c1 [Compound 29, (R)-6-(8-cyclopropyl-6-(1-methyl-1,2,3,4-tetrahydroisoquinoline-2-carbonyl)imidazo[1,2-a]pyridin-2-yl)-5-fluoro-2H-chromene-3-carboxylic Acid]	0.146	49.5
C[C@@H]1c2ccccc2CCN1C(=O)c1cc(C2CC2)c2nc(-c3ccc(NC(=O)N4CC(O)C4)cc3F)cn2c1 [Compound 30, (R)-N-(4-(8-cyclopropyl-6-(1-methyl-1,2,3,4-tetrahydroisoquinoline-2-carbonyl)imidazo[1,2-a]pyridin-2-yl)-3-fluorophenyl)-3-hydroxyazetidine-1-carboxamide]	0.089	43.4
C[C@@H]1c2ccccc2CCN1C(=O)c1cc(C2CC2)c2nc(-c3ccc(/C=C/C(=O)O)cc3F)cn2c1 [Compound 31, (R),(E)-3-(4-(8-cyclopropyl-6-(1-methyl-1,2,3,4-tetrahydroisoquinoline-2-carbonyl)imidazo[1,2-a]pyridin-2-yl)-3-fluorophenyl)acrylic acid]	0.158	49.9
C[C@@H]1c2ccccc2CCN1C(=O)c1cc(C2CC2)c2nc(-c3ccc([C@H]4C[C@@H]4C(=O)O)cc3F)cn2n1 [Compound 32, (1S,2 S)-2-(4-{8-Cyclopropyl-6-[(1R)-1-methyl-1,2,3,4-tetrahydroisoquinoline-2-carbonyl]imidazo[1,2-b]pyridazin-2-yl}-3-fluorophenyl)cyclopropane-1-carboxylic Acid]	0.01	51.5
C[C@@H]1CCCCCN1C(=O)c1cc(C2CC2)c2nc(-c3ccc([C@H]4C[C@@H]4C(=O)O)cc3F)cn2n1 [Compound 33, (1S,2S)-2-(4-{8-Cyclopropyl-6-[(2R)-2-methylazepane-1-carbonyl]imidazo[1,2-b]pyridazin-2-yl}-3-fluorophenyl)cyclopropane-1-carboxylic Acid]	0.067	50.5
CCc1cc(C(=O)N2CCc3ccccc3[C@H]2C)nn2cc(-c3ccc(N4C[C@H](O)[C@@H](O)C4)cc3F)nc12 [Compound 34, (2-(4-((3 S,4 S)-3,4-dihydroxypyrrolidin-1-yl)-2-fluorophenyl)-8-ethylimidazo[1,2-b]pyridazin-6-yl)((R)-1-methyl-3,4-dihydroisoquinolin-2(1H)-yl)methanone]	0.012	24.5
CCc1cc(C(=O)N2CCc3ccccc3[C@H]2C)nn2cc(-c3ccc(N4CC(O)C4)cc3F)nc12 [Compound 35, (R)-(8-ethyl-2-(2-fluoro-4-(3-hydroxyazetidin-1-yl)phenyl)imidazo[1,2-b]pyridazin-6-yl)(1-methyl-3,4-dihydroisoquinolin-2(1H)-yl)methanone]	0.021	16.3
CCc1cc(C(=O)N2CCc3ccccc3[C@H]2C)nn2cc(-c3ccc(/C=C/C(=O)O)cc3F)nc12 [Compound 36, (R,E)-3-(4-(8-ethyl-6-(1-methyl-1,2,3,4-tetrahydroisoquinoline-2-carbonyl)imidazo[1,2-b]pyridazin-2-yl)-3-fluorophenyl)acrylic Acid]	0.039	17.2
CCc1cc(C(=O)N(CC)C(C)C(C)C)nn2cc(-c3ccc(NC(=O)N4CC[C@@H](O)C4)cc3F)nc12 (stereo partly drawn) [Compound 42, N,8-diethyl-2-(2-fluoro-4-((R)-3-hydroxypyrrolidine-1-carboxamido)phenyl)-N-(3-methylbutan-2-yl)imidazo[1,2-b]pyridazine-6-carboxamide]	5.55	46.8
C[C@@H]1c2ccccc2CCN1C(=O)c1cc(-c2cccc(F)c2)c2nc(-c3ccc(NC(=O)N4CC[C@@H](O)C4)cc3F)cn2n1 [Compound 43, (R)-N-(3-fluoro-4-(8-(3-fluorophenyl)-6-((R)-1-methyl-1,2,3,4-tetrahydroisoquinoline-2-carbonyl)imidazo[1,2-b]pyridazin-2-yl)phenyl)-3-hydroxypyrrolidine-1-carboxamide]	0.022	> 100
CCc1cc(C(=O)N2CCc3ccccc3[C@H]2C)nn2cc(-c3ccc4c(c3F)C=C(C(N)=O)CO4)nc12 [Compound 45, (R)-6-(8-ethyl-6-(1-methyl-1,2,3,4-tetrahydroisoquinoline-2-carbonyl)imidazo[1,2-b]pyridazin-2-yl)-5-fluoro-2H-chromene-3-carboxamide]	0.105	> 100
CCc1cc(C(=O)N2CCc3ccccc3[C@H]2C)nn2cc(-c3ccc4c(c3F)OCC(C(N)=O)=C4)nc12 [Compound 46, (R)-7-(8-ethyl-6-(1-methyl-1,2,3,4-tetrahydroisoquinoline-2-carbonyl)imidazo[1,2-b]pyridazin-2-yl)-8-fluoro-2H-chromene-3-carboxamide]	0.054	> 100
C[C@@H]1c2ccccc2CCN1C(=O)c1cn2cc(-c3ccc(NC(=O)N4CC[C@@H](O)C4)cc3F)nc2c(C2CC2)n1 [Compound 47, (R)-N-(4-(8-cyclopropyl-6-((R)-1-methyl-1,2,3,4-tetrahydroisoquinoline-2-carbonyl)imidazo[1,2-a]pyrazin-2-yl)-3-fluorophenyl)-3-hydroxypyrrolidine-1-carboxamide]	2.77	> 100
C[C@@H]1c2ccccc2CCN1C(=O)c1cn2cc(-c3ccc(N4C[C@H](O)[C@@H](O)C4)cc3F)nc2c(C2CC2)n1 [Compound 48, (8-cyclopropyl-2-(4-((3 S,4 S)-3,4-dihydroxypyrrolidin-1-yl)-2-fluorophenyl)imidazo[1,2-a]pyrazin-6-yl)((R)-1-methyl-3,4-dihydroisoquinolin-2(1H)-yl)methanone]	3.77	58.8
C[C@@H]1c2ccccc2CCN1C(=O)c1cc(C2CC2)c2cc(-c3ccc(NC(=O)N4CC[C@@H](O)C4)cc3F)cn2n1 [Compound 49, (R)-N-(4-(4-cyclopropyl-2-((R)-1-methyl-1,2,3,4-tetrahydroisoquinoline-2-carbonyl)pyrrolo[1,2-b]pyridazin-6-yl)-3-fluorophenyl)-3-hydroxypyrrolidine-1-carboxamide]	0.048	45.5
